From patent US5464617A, “β-lactam compounds” (Hoffmann-La Roche Inc., priority 1994, dated 1995) come the findings set out here.

The subject of experiment [1] is Citrobacter freundii 1982. The experiment can be described thus: MIC in vitro of a 1:4 combination of ceftriaxone with a compound of formula I (Test D). The experiment is classed as cell-based. Conditions: for MIC C. freundii 1982: Table 2; for MIC C. freundii 1982 (D): test D. Here is the method: The minimum inhibitory concentration in vitro ([…]) of a 1:4 combination of ceftriaxone with a compound of formula I against Citrobacter freundii 1982 was measured and compiled in Table 2 hereinafter.

A further experiment concerns E. coli 1346. In words: Antibacterial activity of the products per se, serial dilution method in liquid medium (Test E). The experiment is classed as cell-based. To be noted: product per se; for MIC E. coli 1346: Table 3, liquid medium; for MIC E. coli 1346 (E): test E. From the text: The antibacterial activity of the products per se is illustrated on the basis of Table 3 hereinafter, the minimum inhibitory concentration […] in vitro against E. coli 1346 being determined using the serial dilution method in liquid medium: […]

[2] abbreviates: 1:4 combination of ceftriaxone with the compound.
[3] abbreviates: Table 4, 1:4 combination of ceftriaxone with the compound.

Where a name gives a salt, the structure may show the parent alone.

For `Cn1nnnc1SC1=C(C(=O)O)N2C(=O)[C@@H]3[C@H]2[C@H](C1)CN3C(=O)Nc1ccc(O)cc1` [Example 3(a), (1aS,3aR,6bR)-2-(4-Hydroxy-phenylcarbamoyl)-5-(1-methyl-1H-tetrazol-5-ylsulphanyl)-1-oxo-1a,2,3,3a,4,6b-hexahydro-1H-2,6a-diazacyclobut[cd]indene-6-carboxylic acid sodium salt], the “MIC C. freundii 1982” value in experiment [1] (setting [2]) was found to be 0.25 µg/mL. Besides, in the experiment on E. coli 1346, the “MIC E. coli 1346” value turned out to be 128 µg/mL.
Consider `O=C([O-])Cc1ccc[n+](CC2=C(C(=O)O)N3C(=O)[C@@H]4[C@H]3[C@H](C2)CN4C(=O)Nc2ccc(O)cc2)c1` [57(b), (1aS,3aR,6bR)-[1-[6-Carboxy-2-(4-hydroxy-phenylcarbamoyl)-1-oxo-1a,2,3,3a,4,6b-hexahydro-1H-2,6a-diazacyclobut[cd]inden-5-ylmethyl]-pyridin-3-ylio]-acetate], for which the “MIC C. freundii 1982 (D)” value in experiment [1] (setting [3]) worked out at 0.25 µg/mL. Besides, the “MIC E. coli 1346 (E)” value in the experiment on E. coli 1346 (Table 4) is greater than 32 µg/mL.
With `CS(=O)(=O)NCC1=C(C(=O)O)N2C(=O)[C@@H]3[C@H]2[C@H](C1)CN3C(=O)C(F)(F)F` [88(b), (1aS,3aR,6bR)-5-Methylsulphonylaminomethyl-1-oxo-2-trifluoroacetyl-1a,2,3,3a,4,6b-hexahydro-1H-2,6a-diazacyclobut[cd]indene-6-carboxylic acid sodium salt], in experiment [1] (setting [3]), the “MIC C. freundii 1982 (D)” value worked out at 2 µg/mL. Also, in the experiment with E. coli 1346 (Table 4), the “MIC E. coli 1346 (E)” value stood at 4 µg/mL.
On to `CC(C)(C)OC(=O)CCNC(=O)N1C[C@H]2CC(C[n+]3ccccc3)=C(C(=O)[O-])N3C(=O)[C@@H]1[C@@H]23` [23(f), (1aS,3aR,6bR)-2-(2-t-Butoxycarbonyl-ethylcarbamoyl)-1-oxo-5-(pyridin-1-yliomethyl)-1a,2,3,3a,4,6b-hexahydro-1H-2,6a-diazacyclobut[cd]indene-6-carboxylate], for which the “MIC C. freundii 1982 (D)” value in experiment [1] (setting [3]) amounted to 4 µg/mL. In addition, the “MIC E. coli 1346 (E)” value against E. coli 1346 (Table 4) is greater than 32 µg/mL.
For `CC(=O)OCC1=C(C(=O)O)N2C(=O)[C@@H]3[C@H]2[C@H](C1)CN3C(=O)NCC(=O)OCc1ccccc1` [25(b), (1aS,3aR,6bR)-5-Acetoxymethyl-2-benzyloxycarbonylmethylcarbamoyl-1-oxo-1a,2,3,3a,4,6b-hexahydro-1H-2,6a-diazacyclobut[cd]indene-6-carboxylic acid sodium salt] the same measures were 0.25 µg/mL and 4 µg/mL.
For `CC(=O)N1C[C@H]2OC(CSc3cc(C)nc4nc(C(N)=O)nn34)=C(C(=O)O)N3C(=O)[C@@H]1[C@@H]23` [32(c), (1aS,3aR,6bS)-2-Acetyl-5-(2-carbamoyl-S-methyl[1,2,4]-triazolo[1,5-a]pyrimidin-7-ylsulphanylmethyl)-1-oxo-1,1a,2,3,3a,6b-hexahydro-4-oxa-2,6a-diazacyclobut[cd]indene-6-carboxylic acid sodium salt] the same measures were 32 µg/mL and 4 µg/mL.
On to `Cn1nnnc1SC1=C(C(=O)O)N2C(=O)[C@@H]3[C@H]2[C@H](C1)CN3C(=O)NCc1ccc(O)c(O)c1` [3(e), (1aS,3aR,6bR)-2-(3,4-Dihydroxy-benzylcarbamoyl)-5-(1-methyl-1H-tetrazol-5-ylsulphanyl)-1-oxo-1a,2,3,3a,4,6b-hexahydro-1H-2,6a-diazacyclobut[cd]indene-6-carboxylic acid salt], for which the “MIC C. freundii 1982” value in experiment [1] (setting [2]) stood at 2 µg/mL. Besides, the “MIC E. coli 1346” value against E. coli 1346 is 32 µg/mL.
Take `[N-]=[N+]=NCC1=C(C(=O)O)N2C(=O)[C@@H]3[C@H]2[C@H](C1)CN3C(=O)C(F)(F)F` [83(b), (1aS,3aR,6bR)-5-Azidomethyl-2-trifluoroacetyl-1-oxo-1a,2,3,3a,4,6b-hexahydro-1H-2,6a-diazacyclobut[cd]indene-6-carboxylic acid sodium salt]: in experiment [1] (setting [3]), the “MIC C. freundii 1982 (D)” value is 0.5 µg/mL. In the experiment on E. coli 1346 (Table 4), the “MIC E. coli 1346 (E)” value came out at 0.5 µg/mL.
As for `O=C(O)C1=C(CSc2ccncc2)O[C@@H]2CN(C(=O)Nc3ccc(O)cc3)[C@@H]3C(=O)N1[C@@H]32` [31(d), (1aS,3aR,6bS)-2-(4-Hydroxy-phenylcarbamoyl)-1-oxo-5-(pyridin-4-ylsulphanylmethyl)-1,1a,2,3,3a,6b-hexahydro-4-oxa-2,6a-diazacyclobut[cd]indene-6-carboxylicacid sodium salt], in experiment [1] (setting [3]), the “MIC C. freundii 1982 (D)” value came out at 1 µg/mL. Also, in the experiment on E. coli 1346 (Table 4), the “MIC E. coli 1346 (E)” value is greater than 32 µg/mL.
With `CC(=O)N1C[C@H]2CC(CSc3nnnn3CC(=O)NCCc3ccccc3)=C(C(=O)O)N3C(=O)[C@@H]1[C@@H]23` [80(a), (1aS,3aR,6bR)-2-Acetyl-1-oxo-5-[1-(phenethylcarbamoylmethyl)-1H-tetrazol-5-ylsulphanylmethyl]-1a,2,3,3a,4,6b-hexahydro-1H-2,6a-diazacyclobut[cd]indene-6-carboxylic acid sodium salt], the “MIC C. freundii 1982 (D)” value in experiment [1] (setting [3]) is 4 µg/mL. For the same compound, the “MIC E. coli 1346 (E)” value in the experiment on E. coli 1346 (Table 4) was 0.5 µg/mL.
As to `NC(=O)OCC1=C(C(=O)O)N2C(=O)[C@@H]3[C@H]2[C@H](C1)CN3C(=O)Cc1cccs1` [58(b), (1aS, 3aR,6bR)-5-Carbamoyloxymethyl-1-oxo-2-(thiophen-2-yl-acetyl)-1a,2,3,3a,4,6b-hexahydro-1H-2,6a-diazacyclobut[cd]indene-6-carboxylic acid sodium salt], the “MIC C. freundii 1982 (D)” value in experiment [1] (setting [3]) was found to be 0.5 µg/mL. For the same compound, the “MIC E. coli 1346 (E)” value against E. coli 1346 (Table 4) came to 16 µg/mL.
With `NC(=O)OCC1=C(C(=O)O)N2C(=O)[C@@H]3[C@H]2[C@H](C1)CN3C(=O)Nc1ccc(O)cc1` [27(a), (1aS,3aR,6bR)-5-Carbamoyloxymethyl-2-(4-hydroxyphenylcarbamoyl)-1-oxo-1a,2,3,3a,4,6b-hexahydro-1H-2,6a-diazacyclobut[cd]indene-6-carboxylic add sodium salt], the “MIC C. freundii 1982 (D)” value in experiment [1] (Table 5, particularly preferred products, 1:4 combination with ceftriaxone) was no more than 0.06 µg/mL. In addition, in the experiment with E. coli 1346 (Table 5, particularly preferred products), the “MIC E. coli 1346 (E)” value was greater than 32 µg/mL.
Regarding `CNC(=O)Cn1nnnc1SCC1=C(C(=O)O)N2C(=O)[C@@H]3[C@H]2[C@@H](CN3C(C)=O)O1` [32(f), (1aS,3aR, 6bS)-2-Acetyl-5-(1-methyl-carbamoylmethyl-1H-tetrazol-5-ylsulphanylmethyl)-1-oxo-1,1a,2,3,3a,6b-hexahydro-4-oxa-2,6a-diazacyclobut[cd]indene-6-carboxylic acid sodium salt], in experiment [1] (setting [3]), the “MIC C. freundii 1982 (D)” value was determined as 8 µg/mL. Moreover, in the experiment with E. coli 1346 (Table 4), the “MIC E. coli 1346 (E)” value was found to be 4 µg/mL.
For `CNC(=O)Cn1nnnc1SCC1=C(C(=O)O)N2C(=O)[C@@H]3[C@H]2[C@H](C1)CN3C(C)=O` [74(a), (1aS,3aR,6bR)-2-Acetyl-5-(1-methylcarbamoylmethyl-1H-tetrazol-5-ylsulphanylmethyl)-1-oxo-1a,2,3,3a,4,6b-hexahydro-1H-2,6a-diazacyclobut[cd]indene-6-carboxylic acid sodium salt], the “MIC C. freundii 1982 (D)” value in experiment [1] (setting [3]) stood at 1 µg/mL. Further, the “MIC E. coli 1346 (E)” value against E. coli 1346 (Table 4) was 2 µg/mL.
In the case of `NC(=O)CSC1=C(C(=O)O)N2C(=O)[C@H]3NC[C@@H](C1)[C@H]32` [Example 2(f), (1aS,3aR,6bR)-5-Carbamoylmethylsulphanyl-1-oxo-1a,2,3,3a,4,6b-hexahydro-1H-2,6a-diazacyclobut[cd]indene-6-carboxylic acid trifluoroacetate], the “MIC C. freundii 1982 (D)” value in experiment [1] (setting [3]) was 2 µg/mL. In addition, the “MIC E. coli 1346 (E)” value against E. coli 1346 (Table 4) came to 8 µg/mL.
On to `CC(=O)N1C[C@H]2OC(CSc3ccncc3)=C(C(=O)O)N3C(=O)[C@@H]1[C@@H]23` [32(a), (1aS,3aR,6bS)-2-Acetyl-5-(pyridin-4-ylsulphanylmethyl)-1-oxo-1,1a,2,3,3a,6b-hexahydro-4-oxa-2,6a-diazacyclobut[cd]indene-6-carboxylic acid sodium salt], for which, in experiment [1] (setting [3]), the “MIC C. freundii 1982 (D)” value is 16 µg/mL. Also, the “MIC E. coli 1346 (E)” value against E. coli 1346 (Table 4) was greater than 32 µg/mL.
As to `CC(=O)N1C[C@H]2OC(CSc3nnnn3CC(=O)NC3CC3)=C(C(=O)O)N3C(=O)[C@@H]1[C@@H]23` [32(d), (1a-S,3aR,6bS)-2-Acetyl-5-(1-cyclopropylcarbamoylmethyl-1H-tetrazol-5-ylsulphanylmethyl)-1-oxo-1,1a,2,3,3a,6b-hexahydro-4-oxa-2,6a-diazacyclobut[cd]indene-6-carboxylic acid sodium salt], the “MIC C. freundii 1982 (D)” value in experiment [1] (setting [3]) turned out to be 16 µg/mL. Further, in the experiment with E. coli 1346 (Table 4), the “MIC E. coli 1346 (E)” value came to 16 µg/mL.
As to `CC(=O)N1C[C@H]2CC(COC(N)=O)=C(C(=O)O)N3C(=O)[C@@H]1[C@@H]23` [58(a), (1aS,3aR,6bR)-2-Acetyl-5-carbamoyloxymethyl-1-oxo-1a,2,3,3a,4,6b-hexahydro-1H-2,6a-diazacyclobut[cd]indene-6-carboxylic acid sodium salt], the “MIC C. freundii 1982 (D)” value in experiment [1] (setting [3]) stood at 2 µg/mL. Further, the “MIC E. coli 1346 (E)” value in the experiment with E. coli 1346 (Table 4) was greater than 32 µg/mL.
The like results for `O=C([O-])C[n+]1ccc(SCC2=C(C(=O)O)N3C(=O)[C@@H]4[C@H]3[C@H](C2)CN4C(=O)C(F)(F)F)cc1` [Example 52(b), (1aS,3aR,6bR)-[4-(2-Trifluoroacetyl-6-carboxy-1-oxo-1a,2,3,3a,4,6b-hexahydro-1H-2,6a-diazacyclobut[cd]inden-5-ylmethylsulphanyl)-pyridin-1-ylio]-acetate sodium salt] were, in that order, 1 µg/mL and 2 µg/mL.
The like results for `O=C(O)C1=C(Sc2ccncc2)C[C@@H]2CN(C(=O)Nc3ccc(O)cc3)[C@@H]3C(=O)N1[C@H]23` [3(o), (1aS,3aR,6bR)-2-(4-Hydroxy-phenylcarbamoyl)-1-oxo-5-(pyridin-4-ylsulphanyl)-1a,2,3,3a,4,6b-hexahydro-1H-2,6a-diazacyclobut[cd]indene-6-carboxylic acid sodium salt] were, in that order, 1 µg/mL and greater than 32 µg/mL.
